Source: patent US12612410B2 (CHILDREN'S HOSPITAL MEDICAL CENTER, priority 2020, dated 2026)

Each molecule was assayed against T1, FLT3 (Homo sapiens, UniProt P36888) (assay: DiscoverX KINOMEscan competition binding, FLT3).
T1 sequence (P36888 27-993): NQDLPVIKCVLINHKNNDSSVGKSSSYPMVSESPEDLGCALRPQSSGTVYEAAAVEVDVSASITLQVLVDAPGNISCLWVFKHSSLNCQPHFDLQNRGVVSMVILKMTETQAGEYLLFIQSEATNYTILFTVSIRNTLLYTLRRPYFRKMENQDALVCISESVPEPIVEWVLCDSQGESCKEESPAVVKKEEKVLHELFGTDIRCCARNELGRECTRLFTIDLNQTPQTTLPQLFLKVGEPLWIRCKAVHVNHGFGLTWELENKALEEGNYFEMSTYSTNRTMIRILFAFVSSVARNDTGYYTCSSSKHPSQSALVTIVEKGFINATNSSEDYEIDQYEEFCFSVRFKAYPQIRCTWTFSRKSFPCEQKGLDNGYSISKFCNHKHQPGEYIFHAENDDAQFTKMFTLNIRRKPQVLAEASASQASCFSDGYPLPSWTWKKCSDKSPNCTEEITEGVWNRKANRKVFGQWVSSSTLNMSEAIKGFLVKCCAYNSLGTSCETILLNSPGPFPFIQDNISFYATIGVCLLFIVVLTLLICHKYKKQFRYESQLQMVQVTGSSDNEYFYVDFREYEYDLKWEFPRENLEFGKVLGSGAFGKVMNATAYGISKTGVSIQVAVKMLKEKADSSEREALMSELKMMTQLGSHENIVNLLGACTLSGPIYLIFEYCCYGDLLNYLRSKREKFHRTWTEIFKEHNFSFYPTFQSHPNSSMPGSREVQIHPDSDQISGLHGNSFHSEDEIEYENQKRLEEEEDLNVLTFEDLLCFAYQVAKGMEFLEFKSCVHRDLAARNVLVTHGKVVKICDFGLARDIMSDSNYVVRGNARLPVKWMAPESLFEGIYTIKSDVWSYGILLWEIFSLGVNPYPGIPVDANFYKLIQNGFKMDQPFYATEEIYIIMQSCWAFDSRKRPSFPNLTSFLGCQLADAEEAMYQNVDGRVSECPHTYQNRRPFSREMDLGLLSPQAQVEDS
Parameters: purchased Reaction Biology (RBC), HotSpot kinase assay

| Structure (SMILES) | Kd |
| --- | --- |
| FC(F)c1cn2c(-c3cccc(N[C@H]4CNC[C@@H]4F)n3)cnc2cn1 [Compound 16, 6-(6-(difluoromethyl)imidazo[1,2-a]pyrazin-3-yl)-N-((3S,4S)-4-fluoropyrrolidin-3-yl)pyridin-2-amine] | 0.42 nM |
| F[C@H]1CNC[C@@H]1Nc1cccc(-c2cnc3cnc(C4CC4)cn23)n1 [Compound 50, 6-(6-cyclopropylimidazo[1,2-a]pyrazin-3-yl)-N-((3S,4S)-4-fluoropyrrolidin-3-yl)pyridin-2-amine] | 0.062 nM |
| CC1(c2cn3c(-c4cccc(N[C@H]5CNCC56CC6)n4)cnc3cn2)CC1 [Compound 5, (R)-N-(6-(6-(1-methylcyclopropyl)imidazo[1,2-a]pyrazin-3-yl)pyridin-2-yl)-5-azaspiro[2.4]heptan-7-amine] | 0.027 nM |
| FC(F)c1cn2c(-c3cccc(N[C@H]4CNCC[C@@H]4F)n3)cnc2cn1 [Compound 25, 6-(6-(difluoromethyl)imidazo[1,2-a]pyrazin-3-yl)-N-((3S,4S)-4-fluoropiperidin-3-yl)pyridin-2-amine] | 0.13 nM |
| CC1(c2cn3c(-c4cccc(N[C@@H]5CCNC5)n4)cnc3cn2)CC1 [Compound 3, (R)-6-(6-(1-methylcyclopropyl)imidazo[1,2-a]pyrazin-3-yl)-N-(pyrrolidin-3-yl)pyridin-2-amine] | 0.056 nM |
| Cn1cc(-c2cn3c(-c4cccc(N[C@H]5CNC[C@@H]5F)n4)cnc3cn2)cn1 [Compound 52, N-((3S,4S)-4-fluoropyrrolidin-3-yl)-6-(6-(1-methyl-1H-pyrazol-4-yl)imidazo[1,2-a]pyrazin-3-yl)pyridin-2-amine] | 0.035 nM |
| CC(C)(O)c1cn2c(-c3cccc(N[C@H]4CNCC[C@@H]4F)n3)cnc2cn1 [Compound 31, 2-(3-(6-(((3S,4S)-4-fluoropiperidin-3-yl)amino)pyridin-2-yl)imidazo[1,2-a]pyrazin-6-yl)propan-2-ol] | 0.55 nM |
| CC(C)(O)c1cn2c(-c3cccc(N[C@@H]4CCCNC4)n3)cnc2cn1 [Compound 30, (R)-2-(3-(6-(piperidin-3-ylamino)pyridin-2-yl)imidazo[1,2-a]pyrazin-6-yl)propan-2-ol] | 1.5 nM |
| FC(F)(F)C1(c2cn3c(-c4cccc(N[C@@H]5CCNC5)n4)cnc3cn2)CC1 [Compound 10, (R)-N-(pyrrolidin-3-yl)-6-(6-(1-(trifluoromethyl)cyclopropyl)imidazo[1,2-a]pyrazin-3-yl)pyridin-2-amine] | 0.38 nM |
| CC1(c2cn3c(-c4cccc(N[C@H]5CNC[C@@H]5F)n4)cnc3cn2)CC1 [Compound 1, N-((3S,4S)-4-fluoropyrrolidin-3-yl)-6-(6-(1-methylcyclopropyl)imidazo[1,2-a]pyrazin-3-yl)pyridin-2-amine] | 0.049 nM |
| FC(F)(F)COc1cn2c(-c3cccc(N[C@@H]4CCNC4)n3)cnc2cn1 [Compound 38, (R)-N-(pyrrolidin-3-yl)-6-(6-(2,2,2-trifluoroethoxy)imidazo[1,2-a]pyrazin-3-yl)pyridin-2-amine] | 0.61 nM |
